Test results taken from publication PMC12016938, “A small molecule PKCε inhibitor reduces hyperalgesia induced by paclitaxel or opioid withdrawal” (JCI Insight, 2025).
“And” between values parts separate entries of the source, which are not always exact repeats. Equal values may be shown once. Read-outs that look alike come from different tables or passages of the source.

Assay: Pharmacokinetic studies in rats (plasma and brain)
Type: in vivo
Details: for Kp at 2 h / Kp at 24 h / concentration at 2 h / concentration at 24 h / Plasma concentration / Brain/Plasma / Plasma 2h/24h: rat; for concentration at 2 h / concentration at 24 h: read-out: Brain concentration
Method: Because binding to plasma protein was approximately 90%, we predicted that the free concentration at each time point was 10 times lower than the measured plasma concentration.
Pharmacokinetic studies in rats. Pharmacokinetics studies were contracted to the Drug Metabolism and Pharmacokinetics Core at Scripps Research. CP612 was dissolved at in 10% Tween-80/90% water and administered at 40 mg/kg/5 mL. Six rats were injected i.v. and 6 were injected i.p. Three rats were used to collect a full plasma time course from 5 minutes to 24 hours after dose. Then, brains were collected from these rats at 24 hours and from 3 additional rats at 2 hours after administration of compound. One rat receiving i.p. administration of CP612 was excluded as it had low/nondetectable levels indicating missed i.p. injection in that rat. Plasma samples were diluted 10-fold in blank plasma. Each brain was disrupted in potassium phosphate buffer (pH 7.4; 9 μL per 1mg tissue) on ice using brief sonication pulses. CP612 was detected with an API Triple Quad 5500 LC-MS/MS (SCIEX) using an MRM(+) method: CP612 (463/282, m/z) with carbamazepine (238/195.1, m/z) as an internal standard.

[1] = i.p. 40 mg/kg, 2h, individual rat, 40 mg/kg
[2] = i.p. 40 mg/kg, 24h, individual rat, 40 mg/kg
[3] = i.v. 40 mg/kg, 2h, individual rat, 40 mg/kg
[4] = i.v. 40 mg/kg, 24h, individual rat, 40 mg/kg

In the case of `N[C@H](CNC(=O)C1(c2ccc(Cl)cc2)CCCC1)c1ccc(C(=O)Nc2ccncc2)cc1` [CP612], the “Brain level between 2 hours and 24 hours” value (40 mg/kg i.p.) is reported as “remained stable”, the “Decrease of plasma level between 2 hours and 24 hours” value (40 mg/kg i.p.) is reported as “about 30 fold” and the “Decrease of brain level between 2 hours and 24 hours” value (40 mg/kg i.v.) is reported as “less than 2 fold”. The “Decrease of plasma level between 2 hours and 24 hours” value (40 mg/kg i.v.) was “about 70 fold”, the “Predicted free concentration relative to measured plasma concentration” value (from approx. 90% plasma protein binding) was 10 times lower and the Kp at 2 h (brain, ip, 40 mg/kg, 40 mg/kg i.p., 2 hours, read-out: Brain/plasma concentration ratio) was 0.03 ± 0.009. It also gave a Kp at 24 h (brain, ip, 40 mg/kg, 40 mg/kg i.p., 24 hours, read-out: Brain/plasma concentration ratio) of 1.18 ± 0.42, a concentration at 2 h (brain, ip, 40 mg/kg, i.p. 40 mg/kg, 2h, mean all rats) of 494 nM and a Kp at 2 h (brain, ip, 40 mg/kg, i.p. 40 mg/kg, 2h, mean all rats, read-out: Brain/Plasma) of 0.0312. It also gave a concentration at 2 h (brain, ip, 40 mg/kg, i.p. 40 mg/kg, 2h, mean of Plasma 2h, Brain 2h rats) of 494 nM, a Kp at 2 h (brain, ip, 40 mg/kg, i.p. 40 mg/kg, 2h, mean of Plasma 2h, Brain 2h rats, read-out: Brain/Plasma) of 0.0312 and a concentration at 24 h (brain, ip, 40 mg/kg, i.p. 40 mg/kg, 24h, individual rat) of 609 nM. The concentration at 24 h (brain, ip, 40 mg/kg, i.p. 40 mg/kg, 24h, mean all rats) was 540 nM, the Kp at 24 h (brain, ip, 40 mg/kg, i.p. 40 mg/kg, 24h, mean all rats, read-out: Brain/Plasma) was 1.18 and the concentration at 24 h (brain, ip, 40 mg/kg, i.p. 40 mg/kg, 24h, mean of RM Plasma + Brain 24h rats) was 540 nM. The Kp at 24 h (brain, ip, 40 mg/kg, i.p. 40 mg/kg, 24h, mean of RM Plasma + Brain 24h rats, read-out: Brain/Plasma) was 1.18, the Kp at 2 h (brain, iv, 40 mg/kg, 40 mg/kg i.v., 2 hours, read-out: Brain/plasma concentration ratio) was 0.16 ± 0.03 and the Kp at 24 h (brain, iv, 40 mg/kg, 40 mg/kg i.v., 24 hours, read-out: Brain/plasma concentration ratio) was 9.17 ± 3.19. The concentration at 2 h (brain, iv, 40 mg/kg, i.v. 40 mg/kg, 2h, individual rat) was 2290 nM, the Kp at 2 h (brain, iv, 40 mg/kg, i.v. 40 mg/kg, 2h, individual rat, read-out: Brain/Plasma) was 0.15 and the concentration at 2 h (brain, iv, 40 mg/kg, i.v. 40 mg/kg, 2h, mean all rats) was 2630 nM. For the same molecule, the Kp at 2 h (brain, iv, 40 mg/kg, i.v. 40 mg/kg, 2h, mean all rats, read-out: Brain/Plasma) was 0.163, the concentration at 2 h (brain, iv, 40 mg/kg, i.v. 40 mg/kg, 2h, mean of Plasma 2h, Brain 2h rats) was 2630 nM and the Kp at 2 h (brain, iv, 40 mg/kg, i.v. 40 mg/kg, 2h, mean of Plasma 2h, Brain 2h rats, read-out: Brain/Plasma) was 0.163. For the same molecule, the concentration at 24 h (brain, iv, 40 mg/kg, i.v. 40 mg/kg, 24h, mean all rats) was 1460 nM, the Kp at 24 h (brain, iv, 40 mg/kg, i.v. 40 mg/kg, 24h, mean all rats, read-out: Brain/Plasma) was 9.17 and the concentration at 24 h (brain, iv, 40 mg/kg, i.v. 40 mg/kg, 24h, mean of RM Plasma + Brain 24h rats) was 1460 nM. It also gave a Kp at 24 h (brain, iv, 40 mg/kg, i.v. 40 mg/kg, 24h, mean of RM Plasma + Brain 24h rats, read-out: Brain/Plasma) of 9.17, a Plasma concentration (i.p. 40 mg/kg, 15min, individual rat, 40 mg/kg) of 21815.2 nM and a Plasma concentration (i.p. 40 mg/kg, 30min, individual rat, 40 mg/kg) of 20540.8 nM. The Brain/Plasma [1] was 0.02 and 0.0252 and 0.05, the Plasma concentration [1] was 15033 nM and 14212.3 nM and 13650.7 nM and 17581.8 nM and the concentration at 2 h [1] was 280.8 nM and 343.4 nM and 857.5 nM. For the same molecule, the Plasma concentration (i.p. 40 mg/kg, 4h, individual rat, 40 mg/kg) was 6479.8 nM, the Plasma concentration (i.p. 40 mg/kg, 6h, individual rat, 40 mg/kg) was 1874.8 nM and the Plasma concentration (i.p. 40 mg/kg, 8h, individual rat, 40 mg/kg) was 1974.2 nM. For the same molecule, the Brain/Plasma [2] was 1.60 and 0.76, the Plasma concentration [2] was 615.6 nM and the concentration at 2 h [2] was 470.9 nM. The “Plasma 2h/24h” value (i.p. 40 mg/kg, individual rat, 40 mg/kg) was 37.8409 and 24.4211, the “Plasma 2h/24h” value (i.p. 40 mg/kg, mean all rats) was 31.1310 and the “Plasma 2h/24h” value (i.p. 40 mg/kg, mean of RM Plasma + Brain 24h rats) was 31.1310. For the same molecule, the Plasma concentration (i.v. 40 mg/kg, 5min, individual rat, 40 mg/kg) was 73005.3 nM and 87692.8 nM, the Plasma concentration (i.v. 40 mg/kg, 15min, individual rat, 40 mg/kg) was 49462.2 nM and 51406.1 nM and the Plasma concentration (i.v. 40 mg/kg, 30min, individual rat, 40 mg/kg) was 35638.7 nM and 16847.4 nM and 33046.8 nM. For the same molecule, the Plasma concentration (i.v. 40 mg/kg, 1h, individual rat, 40 mg/kg) was 23543.1 nM and 24623.1 nM, the Brain/Plasma [3] was 0.22 and 0.12 and the Plasma concentration [3] was 15313.8 nM and 16653 nM and 15983.4 nM and 12333.1 nM and 12074 nM. The concentration at 2 h [3] was 3671.9 nM and 1922.3 nM, the Plasma concentration (i.v. 40 mg/kg, 4h, individual rat, 40 mg/kg) was 4017.5 nM and 4341.4 nM and the Plasma concentration (i.v. 40 mg/kg, 6h, individual rat, 40 mg/kg) was 1823 nM and 1159.9 nM. The Plasma concentration (i.v. 40 mg/kg, 8h, individual rat, 40 mg/kg) was 1546.5 nM and 1265.7 nM, the Brain/Plasma [4] was 11.80 and 2.82 and 12.90 and the Plasma concentration [4] was 127 nM and 287.3 nM and 160.9 nM. The concentration at 2 h [4] was 1499 nM and 810 nM and 2075.7 nM and the “Plasma 2h/24h” value (i.v. 40 mg/kg, individual rat, 40 mg/kg) was 88.9456 and 42.9323 and 75.0336.
